Legend:
[1] = Solvent extraction of aqueous crude chlorophthalic acid solution: distribution coefficient K and selectivity beta of chlorophthalides; format: physicochemical; set-up: key to K values: K = chlorophthalide mass fraction organic phase / aqueous phase; key to beta values: beta = (phthalide/acid wt fraction, organic) ÷ (same ratio, water)
Source text: In one embodiment the efficacy of a solvent extraction may be measured by the distribution coefficient, K, which is the mole fraction of specified solute in the organic solvent phase compared to the mole fraction of specified solute in the aqueous phase. In some particular embodiments an organic solvent is employed such that the value of the distribution coefficient, K, for phthalide in a product mixture comprising at least one phthalic acid is greater than 1. In other particular embodiments an organic solvent is employed such that the value of the distribution coefficient, K, for chlorophthalide in a product mixture comprising at least one chlorophthalic acid is greater than 1. In various particular embodiments an organic solvent is employed such that the value of the distribution coefficient, K, for chlorophthalide is in one embodiment in a range of between about 1.1 and about 5, and in another embodiment in a range of between about 1.1 and about 4. In a particular embodiment the distribution coefficient is measured for 4-chlorophthalide with water and various organic solvents such as toluene and xylene.
Another factor for measuring the efficacy of a solvent extraction is the selectivity factor, β, which compares the ratio of two components of interest in one phase to the ratio of the same two components in the other phase. In a particular embodiment the selectivity factor is measured for 4-chlorophthalide in relation to chlorophthalic acids in both water and organic solvent.
A 35 wt. % solution of crude chlorophthalic acid in water was prepared by adding appropriate amounts of 4- and 3-chlorophthalic anhydride (70/30 isomer ratio) along with a mixture of about 3 wt. % (based on crude chlorophthalic anhydride) of synthetic 4- and 7-chlorophthalide (produced by reduction of 3-chlorophthalic anhydride). […] A number of vials were prepared each containing 5 milliliters (ml.) of an aqueous phase comprising a certain concentration of crude chlorophthalic acid (5 wt. % to 35 wt. %, based on the weight of the entire aqueous phase and, optionally, acetic acid (0 wt. % to 36 wt. %, based on the weight of the entire aqueous phase). Each vial was then treated with 5 ml. of either toluene, o-dichlorobenzene (ODCB), or ortho-xylene. The vials were then shaken vigorously in a mechanical shaker for 50 minutes at a specified temperature (22° C., 42° C., or 60° C.). The phases were allowed to separate over several hours (actual phase separation occurred much quicker than this) and then each phase was sampled using a pipette. No stable emulsions were observed under the conditions which were examined. The organic phase was analyzed directly by GC (using biphenyl internal standard, following silylation of the product mixture), while for the aqueous phase, water was evaporated and solid residue was redissolved in organic solvent before GC analysis. The analytical data were used to calculate an equilibrium constant, K, which represented the ratio of chlorophthalides mass fraction in the organic phase to that in the aqueous phase. The analytical data were also used to calculate a selectivity constant, beta, which represented the quotient of [(wt. fraction of chlorophthalides in xylene)/(wt fraction of chlorophthalic acids in xylene)] divided by the quotient of [(wt fraction of chlorophthalides in water)/(wt fraction of chlorophthalic acids in water)]. The data in Table 1 show results of extractions performed at 22° C. with no acetic acid present.
The Procedure of Example 1 was repeated except that extractions were performed at 22 wt. % initial chlorophthalic acid concentration at 22° C. in the presence of different levels of acetic acid.
The procedure of Example 1 was repeated except that extractions were performed at different wt. % initial chlorophthalic acid concentration at 60° C. with no acetic acid present. […]

[2] = as above; format: physicochemical; set-up: key to K values: K = chlorophthalide mass fraction organic phase / aqueous phase; key to beta values: beta = (phthalide/acid wt fraction, organic) ÷ (same ratio, water); conditions: 22 wt.% chlorophthalic acid, 60° C.
[3] = ODCB/water, 9 wt.% acetic acid in initial aqueous phase, 22 wt.% chlorophthalic acid, 22° C.
[4] = ODCB/water, 10 wt.% acetic acid in initial aqueous phase, 22 wt.% chlorophthalic acid, 60° C.
[5] = ODCB/water, 12 wt.% chlorophthalic acid in aqueous phase, 22° C., no acetic acid
[6] = ODCB/water, 17 wt.% acetic acid in initial aqueous phase, 22 wt.% chlorophthalic acid, 22° C.
[7] = ODCB/water, 19 wt.% acetic acid in initial aqueous phase, 22 wt.% chlorophthalic acid, 60° C.
[8] = ODCB/water, 22 wt.% chlorophthalic acid in aqueous phase, 60° C., no acetic acid
[9] = ODCB/water, 23 wt.% chlorophthalic acid in aqueous phase, 22° C., no acetic acid
[10] = ODCB/water, 26 wt.% acetic acid in initial aqueous phase, 22 wt.% chlorophthalic acid, 22° C.
[11] = ODCB/water, 35 wt.% acetic acid in initial aqueous phase, 22 wt.% chlorophthalic acid, 22° C.
[12] = ODCB/water, 35 wt.% chlorophthalic acid in aqueous phase, 22° C., no acetic acid
[13] = ODCB/water, 35 wt.% chlorophthalic acid in aqueous phase, 60° C., no acetic acid
[14] = toluene/water, 12 wt.% chlorophthalic acid in aqueous phase, 22° C., no acetic acid
[15] = toluene/water, 17 wt.% acetic acid in initial aqueous phase, 22 wt.% chlorophthalic acid, 22° C.
[16] = toluene/water, 22 wt.% chlorophthalic acid in aqueous phase, 60° C., no acetic acid
[17] = toluene/water, 23 wt.% chlorophthalic acid in aqueous phase, 22° C., no acetic acid
[18] = toluene/water, 26 wt.% acetic acid in initial aqueous phase, 22 wt.% chlorophthalic acid, 22° C.
[19] = toluene/water, 35 wt.% chlorophthalic acid in aqueous phase, 22° C., no acetic acid
[20] = toluene/water, 35 wt.% chlorophthalic acid in aqueous phase, 60° C., no acetic acid
[21] = toluene/water, 36 wt.% acetic acid in initial aqueous phase, 22 wt.% chlorophthalic acid, 22° C.
[22] = xylene/water, 12 wt.% chlorophthalic acid in aqueous phase, 22° C., no acetic acid
[23] = xylene/water, 23 wt.% chlorophthalic acid in aqueous phase, 22° C., no acetic acid
[24] = xylene/water, 35 wt.% chlorophthalic acid in aqueous phase, 22° C., no acetic acid

“4- and 7-chlorophthalide [chlorophthalides]” gave a K values ([1]; ODCB/water, 5.5 wt.% chlorophthalic acid in aqueous phase, 22° C., no acetic acid) of 1.1, a beta values ([1]; ODCB/water, 5.5 wt.% chlorophthalic acid in aqueous phase, 22° C., no acetic acid, chlorophthalides vs chlorophthalic acids) of 400 and a K values [1, 3] of 2.3. For the same substance, the beta values [1, 3] was 200, the K values [1, 4] was 3.1 and the beta values [1, 4] was 600. For the same substance, the K values [1, 5] was 1.8, the beta values [1, 5] was 800 and the K values [1, 6] was 2.2. It also gave a beta values [1, 6] of 200, a K values [1, 7] of 2.5 and a beta values [1, 7] of 300. The K values [1, 8] was 2.8, the beta values [1, 8] was 800 and the K values [1, 9] was 2.2. For the same substance, the beta values [1, 9] was 300, the K values [1, 10] was 1.9 and the beta values [1, 10] was 100. It also gave a K values ([1]; ODCB/water, 29 wt.% acetic acid in initial aqueous phase, 22 wt.% chlorophthalic acid, 60° C.) of 2.3, a K values [1, 11] of 1.7 and a beta values [1, 11] of 100. For the same substance, the K values [1, 12] was 1.4, the beta values [1, 12] was 260 and the K values [1, 13] was 1.7. The beta values [1, 13] was 800, the beta values ([1]; ODCB/water, 37 wt.% acetic acid in initial aqueous phase, 22 wt.% chlorophthalic acid, 60° C.) was 100 and the “values for K” value ([1]; acetic acid 0-35 wt.% based on the weight of the water, 22 wt.% solids) was 1.7-2.6. For the same substance, the “selectivity numbers for chlorophthalic acids and chlorophthalide” value ([1]; o-dichlorobenzene, chlorophthalic acids about 20 wt.%, chlorophthalide about 0.6%) was about 500, the “selectivity numbers for chlorophthalic acids and chlorophthalide” value ([1]; toluene and xylene, chlorophthalic acids about 20 wt.%, chlorophthalide about 0.6%) was 4000-5000 and the “values of K” value ([1]; toluene, xylene and o-dichlorobenzene, chlorophthalic acids about 20 wt.%, chlorophthalide about 0.6%) was 1.5-2.5. For the same substance, the K values ([1]; toluene/water, 6 wt.% chlorophthalic acid in aqueous phase, 22° C., no acetic acid) was 1.8, the beta values ([1]; toluene/water, 6 wt.% chlorophthalic acid in aqueous phase, 22° C., no acetic acid, chlorophthalides vs chlorophthalic acids) was 800 and the beta values ([1]; toluene/water, 10 wt.% acetic acid in initial aqueous phase, 22 wt.% chlorophthalic acid, 60° C.) was 900. For the same substance, the K values [1, 14] was 2.6, the beta values [1, 14] was 2500 and the K values [1, 15] was 2.5. For the same substance, the beta values [1, 15] was 400, the K values ([1]; toluene/water, 19 wt.% acetic acid in initial aqueous phase, 22 wt.% chlorophthalic acid, 60° C.) was 2.9 and the K values [1, 16] was 3.5. For the same substance, the beta values [1, 16] was 1800, the K values [1, 17] was 2.5 and the beta values [1, 17] was 3900. The K values [1, 18] was 2.2, the beta values [1, 18] was 150 and the K values ([1]; toluene/water, 29 wt.% acetic acid in initial aqueous phase, 22 wt.% chlorophthalic acid, 60° C.) was 2.4. The K values [1, 19] was 1.7, the beta values [1, 19] was 3400 and the K values [1, 20] was 2.0. The beta values [1, 20] was 1400, the K values [1, 21] was 1.9 and the beta values [1, 21] was 100. For the same substance, the beta values ([1]; toluene/water, 38 wt.% acetic acid in initial aqueous phase, 22 wt.% chlorophthalic acid, 60° C.) was 50, the selectivity numbers ([1]; toluene, 0 wt.% acetic acid, 22 wt.% solids) was 4000 and the selectivity numbers ([1]; toluene, 18 wt.% acetic acid, 22 wt.% solids) was “about 400”. The K values [1, 22] was 2.5, the beta values [1, 22] was 3500 and the K values [1, 23] was 1.8. It also gave a beta values [1, 23] of 4700, a K values [1, 24] of 1.3 and a beta values [1, 24] of 4200. For the same substance, the beta values ([2]; ODCB/water, 29 wt.% acetic acid in initial aqueous phase) was 150, the K values ([2]; ODCB/water, 37 wt.% acetic acid in initial aqueous phase) was 1.7 and the K values ([2]; toluene/water, 10 wt.% acetic acid in initial aqueous phase) was 3.3. It also gave a beta values ([2]; toluene/water, 19 wt.% acetic acid in initial aqueous phase) of 300, a beta values ([2]; toluene/water, 29 wt.% acetic acid in initial aqueous phase) of 150 and a K values ([2]; toluene/water, 38 wt.% acetic acid in initial aqueous phase) of 1.6.

From patent US6670487B1, “Method for removing impurities from oxidation products” (General Electric Company, priority 2002, dated 2003)
